{
  "source": "patent US7563903B2",
  "about": "“Acylaminothiazole derivatives, their preparation and their therapeutic use” (Sanofi-Aventis, priority 2003, dated 2009)",
  "target": "T1, gamma-secretase (Homo sapiens, UniProt P49768, M146L)",
  "T1 construct": "expressed in transfected cells; host or cells: CHO-K1 (clone 30-12)",
  "assay": "β-amyloid cellular trial: inhibition of β-amyloid peptide (β-A4) production, ELISA",
  "format": "cell-based",
  "details": "CHO-K1 line coexpressing the CT100 of APP and PSI M146L clone 30-12, 24-25 h incubation, ELISA of supernatants, read-out: EC50 (50% effective concentration)",
  "excerpt": "For the β-amyloid cellular trial, the CHO-K1 line coexpressing the CT100 of APP and PSI M146L clone 30-12 is used. The line targets the inhibition of gamma-secretase. Presenilin is linked to the gamma-secretase activity (Wolfe M S, Haass C., The Role of presenilins in gamma-secretase activity, J. Biol. Chem., Feb. 23, 2001 276(8), 5413-6) and its coexpression with the amyloid protein or its N-terminal fragment causes an increase in the secretion of the A1-42 peptide (β-A4) thus generating a pharmacological tool which makes it possible to evaluate inhibition by the compounds of formula (I) of the production of the β-A4 peptide. The inoculation of the 96-well culture plates is carried out at the rate of 1×10^5 cells per well in 150 μl of incubation medium. […]\nThe quantity of bound peptide is detected in an indirect manner in the presence of a competitor corresponding to the truncated peptide, peptide 1-28 coupled to biotin which is then detected with streptavidin coupled to alkaline phosphatase. The substrate, p-Nitrophenyl Phosphate (pNPP FAST p-Nitrophenyl Phosphate, Sigma N2770), gives a yellow soluble reaction product which can be read at 405 nm. […] After incubating for 30 minutes at room temperature, the reaction is stopped by the addition of 100 μl per well of 0.1M EDTA and the reading is carried out at 405 nm.",
  "data": [
    {"smiles": "CCC[C@H](NC(=O)[C@@H](O)C(C)(C)C)C(=O)Nc1ncc(-c2ccccc2COc2ccc(Cl)c(Cl)c2)s1", "note": "[compound 50, (2S)—N-(5-{2-[(3,4-dichlorophenoxy)methyl]phenyl}-1,3-thiazol-2-yl)-2-{[(2S)-2-hydroxy-3,3-dimethylbutanoyl]amino}pentanamide]", "values": [
      {"measurement": "EC50", "result": 295, "unit": "nM"}
    ]}
  ]
}
